Key:
Experiment in all cases: relative viability (nuclei count vs DMSO), 5 days (fraction); higher = more cells survive
[1] = compound: Cc1nc(Nc2ncc(C(=O)Nc3c(C)cccc3Cl)s2)cc(N2CCN(CCO)CC2)n1 [Dasatinib] + O=C(c1cc(Cc2n[nH]c(=O)c3ccccc23)ccc1F)N1CCN(C(=O)C2CC2)CC1 [Olaparib] (partner 8 µM)
Procedure, shortened: (§1)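 Lung cancer cell lines were pin-tool dosed in 1536-well plates on the day after seeding, with either a lone drug or a fixed anchor-drug dose plus five library-drug doses (not always all listed) in √10 steps. Nuclei were counted on 4× images after 5 days. Relative viability is the ratio of treated-well to vehicle-well nuclei counts, with each value a median of duplicate plates.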

[2] = compound: C1CC1C(=O)NC2=NNC3=C2C=CC(=C3)C4=CC(=CC=C4)C(=O)NC5CC5 [XMD13-2] + C[C@@H](Oc1cc(-c2cnn(C3CCNCC3)c2)cnc1N)c1c(Cl)ccc(F)c1Cl [Crizotinib] (partner 1 µM)
Procedure, shortened: as §1

[3] = compound: Cc1nc(Nc2ncc(C(=O)Nc3c(C)cccc3Cl)s2)cc(N2CCN(CCO)CC2)n1 [Dasatinib] + C[C@@H](Oc1cc(-c2cnn(C3CCNCC3)c2)cnc1N)c1c(Cl)ccc(F)c1Cl [Crizotinib] (partner 1 µM)
Procedure, shortened: as §1

[4] = compound: C1CC1C(=O)NC2=NNC3=C2C=CC(=C3)C4=CC(=CC=C4)C(=O)NC5CC5 [XMD13-2] + CS(=O)(=O)N1CCN(Cc2cc3nc(-c4cccc5[nH]ncc45)nc(N4CCOCC4)c3s2)CC1 [Pictilisib] (partner 1 µM)
Procedure, shortened: as §1

Cell Line	relative viability ([1]; first compound 0.005 µM)	relative viability ([1]; first compound 0.01581 µM)	relative viability ([1]; first compound 0.05 µM)	relative viability ([1]; first compound 0.1581 µM)	relative viability ([1]; first compound 0.5 µM)	relative viability ([2]; first compound 0.05 µM)	relative viability ([2]; first compound 0.1581 µM)	relative viability ([2]; first compound 0.5 µM)	relative viability ([2]; first compound 1.581 µM)	relative viability ([2]; first compound 5 µM)	relative viability ([3]; first compound 0.005 µM)	relative viability ([3]; first compound 0.01581 µM)	relative viability ([3]; first compound 0.05 µM)	relative viability ([3]; first compound 0.1581 µM)	relative viability ([3]; first compound 0.5 µM)	relative viability ([4]; first compound 0.05 µM)	relative viability ([4]; first compound 0.1581 µM)	relative viability ([4]; first compound 0.5 µM)	relative viability ([4]; first compound 1.581 µM)	relative viability ([4]; first compound 5 µM)
H3255	0.551	0.604	0.563	0.476	0.341	0.972	0.694	0.699	0.884	0.784	0.901	0.757	0.617	0.557	0.27	0.589	0.525	0.485	0.526	0.445
NCI-H1734	0.601	0.479	0.509	0.367	0.196	0.91	0.655	0.66	0.594	0.474	0.553	0.485	0.515	0.301	0.35	0.558	0.45	0.444	0.423	0.389
NCI-H650	0.395	0.357	0.415	0.392	0.263	0.838	0.836	0.803	0.638	0.74	0.741	0.61	0.632	0.444	0.3	0.921	0.827	0.924	0.859	0.801
NCI-H1915	0.267	0.231	0.235	0.151	0.149	0.966	0.931	0.902	0.967	0.941	0.828	0.764	0.638	0.284	0.24	0.981	0.884	1.07	0.9	0.919
Calu-6	0.57	0.434	0.449	0.357	0.34	0.958	0.813	0.898	0.773	0.643	0.701	0.618	0.519	0.341	0.344	1.09	0.92	0.909	0.757	0.439
NCI-H2009	0.715	0.731	0.772	0.556	0.127	1.09	1.03	1.05	1	1.12	0.947	0.936	0.684	0.314	0.141	0.838	0.945	0.904	0.822	0.566
NCI-H1651	0.178	0.175	0.174	0.17	0.16	0.946	0.811	0.886	0.898	0.863	0.874	0.776	0.841	0.768	0.704	0.819	0.477	0.661	0.64	0.548
HOP-62	0.32	0.381	0.307	0.434	0.204	0.871	0.889	0.933	0.939	0.439	1.16	0.966	0.91	0.816	0.165	1.01	0.617	0.586	0.725	0.476
CAL-12T	0.689	0.688	0.877	0.755	0.575	0.76	0.816	0.572	0.538	0.874	0.86	0.627	0.457	0.128	0.0903	0.531		0.339	0.327	0.371
LCLC-103H	0.74	0.716	0.718	0.508	0.356	1.05	1.01	1.18	1	1.14	0.992	1.05	0.968	0.734	0.488	0.684	0.714	0.585	0.657	0.622
NCI-H3122	0.606	0.543	0.657	0.574	0.534	0.308	0.289	0.267	0.251	0.249	0.261	0.332	0.347	0.253	0.223	0.655	0.598	0.585	0.662	0.505
PC-14	0.29	0.31	0.368	0.224	0.0781	1.03	0.961	0.909	0.818	0.969	0.94	0.975	0.855	0.448	0.113	0.995	0.684	0.67	0.608	0.766
BEN	0.755	0.641	0.724	0.549	0.456	0.919	0.913	0.852	0.989	0.917	0.706	0.397	0.493	0.378	0.332	0.663	0.535	0.585	0.562	0.523
EPLC-272H	0.793	0.681	0.697	0.33	0.208	1.02	0.76	1.09	0.802	0.25	0.99	0.765	0.787	0.537	0.326	0.349	0.271	0.271	0.23	0.187
LK-2	0.674	0.609	0.57	0.278	0.229	0.214	0.219	0.25	0.207	0.227	0.266	0.209	0.222	0.189	0.179	0.744	0.464	0.581	0.619	0.582
NCI-H1299	0.959	0.983	0.998	0.639	0.297	1.02	0.954	0.99	0.948	0.904	0.966	0.975	0.779	0.274	0.256	0.896	0.738	0.826	0.592	0.398

Cell Line	relative viability ([1]; first compound 0.005 µM)	relative viability ([1]; first compound 0.01581 µM)	relative viability ([1]; first compound 0.05 µM)	relative viability ([1]; first compound 0.1581 µM)	relative viability ([1]; first compound 0.5 µM)	relative viability ([2]; first compound 0.05 µM)	relative viability ([2]; first compound 0.1581 µM)	relative viability ([2]; first compound 0.5 µM)	relative viability ([2]; first compound 1.581 µM)	relative viability ([2]; first compound 5 µM)	relative viability ([3]; first compound 0.005 µM)	relative viability ([3]; first compound 0.01581 µM)	relative viability ([3]; first compound 0.05 µM)	relative viability ([3]; first compound 0.1581 µM)	relative viability ([3]; first compound 0.5 µM)	relative viability ([4]; first compound 0.05 µM)	relative viability ([4]; first compound 0.1581 µM)	relative viability ([4]; first compound 0.5 µM)	relative viability ([4]; first compound 1.581 µM)	relative viability ([4]; first compound 5 µM)
ChaGo-K-1	0.424	0.404	0.426	0.393	0.325	1.26	1.08	1.25		1.14	1.14	1.02	1	0.862	0.734	0.82	0.631	0.461		0.599
NCI-H1703	0.287	0.25	0.144	0.147	0.148	1.11	0.997	0.874	0.422	0.465	0.652	0.18	0.203	0.154	0.108	0.296	0.262	0.267	0.237	0.193
HCC-827	0.595	0.577	0.535	0.209	0.106	0.974	0.923	0.906	0.807	0.682	0.924	0.82	0.807	0.385	0.145	1.01	0.901	1.18	0.913	0.67
NCI-H1993	1.08	1.13	1.23	0.895	0.794	0.913	0.844	0.935	0.768	0.69	0.881	0.658	0.579	0.501	0.465	0.846	0.783	0.781	0.937	0.845
NCI-H647	0.428	0.301	0.217	0.139	0.116	1.25	0.903	1.12	1.03	0.548	0.734	0.526	0.285	0.149	0.133	0.534	0.491	0.393	0.296	0.277
NCI-H460	0.362	0.383	0.38	0.247	0.199	1.25	0.951	0.99	0.949	0.873	0.729	0.602	0.432	0.243	0.218	0.532	0.324	0.363	0.4	0.36
EMC-BAC-2	0.462	0.404	0.447	0.355	0.301	0.818	0.79	0.795	0.745	0.36	0.754	0.516	0.425	0.247	0.221	0.596	0.497	0.531	0.505	0.413
NCI-H23	0.359	0.301	0.307	0.297	0.282	0.759	0.518	0.506	0.411	0.423	0.409	0.425	0.385	0.304	0.213	0.579	0.438	0.503	0.446	0.457
A-427	0.704	0.646	0.637	0.574	0.563	1.01	0.872	0.812	0.724	0.34	0.761	0.719	0.701	0.495	0.442	0.871	0.732	0.797	0.537	0.558
ABC-1	0.867	0.767	0.786	0.621	0.841	1.4	1.41	1.16	1.03	0.675	0.929	0.856	0.699	0.586	0.367	0.946	0.744	0.706	0.791	0.3
IA-LM	1.06	0.537	0.904	0.706	0.6	0.674	0.794	0.65	0.664	0.528	1.05	1.06	1.45	0.674	0.442	0.387	0.317	0.339	0.3	0.179
NCI-H322M	0.707	0.575	0.492	0.322	0.244	0.913	0.937	1.09	0.814	1.01	0.953	0.785	0.753	0.336	0.155	0.593	0.495	0.451	0.501	0.578
COR-L23	0.338	0.294	0.325	0.208	0.211	0.746	0.51	0.765	0.653	0.759	0.514	0.5	0.35	0.234	0.267	0.8	0.72	0.857	0.818	0.64
NCI-H2085	0.799	0.745	0.553	0.292	0.187	1.09	0.901	0.877	0.736	0.826	0.93	0.806	0.408	0.193	0.158	0.828	0.445	0.444	0.444	0.481
NCI-H2087	0.635	0.55	0.902	0.42	0.349	0.821	0.776	0.913	0.83	0.897	0.858	0.938	0.946	0.863	0.639	0.95	0.846	1.05	0.888	0.772
HCC-366	0.263	0.206	0.217	0.157	0.141	0.616	0.527	0.688	0.529	0.65	0.374	0.18	0.158	0.0803	0.0691	0.189	0.136	0.151	0.2	0.12

— the supplement of paper PMC10307832
